Data from US10052340B2 (XIAMEN UNIVERSITY, priority 2012, dated 2018).

Tests used:
[1] = tested on: other detected nuclear receptors; experiment: Reporter gene analysis, COS-7 cells cotransfected with other nuclear receptors (PPARs, RORs, GR, PR, RARα, RARβ, PXR, CAR); settings: 0.5 μM, COS-7, FIG. 2
Description: (§1) DMEM medium containing 10% fetal bovine serum is used to perform the culture of monkey kidney epithelial cell COS-7 cells, and COS-7 cells are inoculated onto a 24-well plate on the day before transfection with an inoculation density of 5×10^4 cells/well, and transfected on the next day. The transfection is the transient transfection performed using Lipofectamine 2000 (Invitrogen). In the reporter gene analysis experiment, 200 ng of a nuclear receptor full-length expression plasmid or the expression plasmid of the mutant thereof, 200 ng of endogenous promoter reporter gene, and 30 ng of Renilla luciferase expression plasmid are used for cotransfection. 500 μl Opti-MEM is added to each well and cultured for 5 h, followed by adding a ligand medicament diluted in Opti-MEM to reach the corresponding concentration, and treating for 18 h. Various nuclear receptors and the corresponding reporter gene used are as follows: human FXR, EcRE-Luc; human PPARs (α, β, and γ), PPRE-Luc; human RORs (α, β and γ), Pcp2/RORE-Luc; human GR and PR, MMTV-Luc; human RARα and RARβ, and βRE-Luc.
(§2) A ligand can be tested for the affinity to FXR since the ligand can induce FXR to recruit coregulators after binding to FXR.

[2] = tested on: KK-Ay mice; experiment: Mouse trial, KK-Ay diabetes and obesity model mice fed with high-fat diet; format: in vivo
Description: In order to detect the efficacy of abamectin/avermectin, ivermectin and the derivative doramectin in the body of a diabetes and obesity mouse model, we choose diabetes and obesity mouse model mice, KK-Ay mice, as the experimental subject.

[3] = tested on: wild-type C57BL/6J mice; experiment: Mouse trial, wild-type mice fed with high-fat diet; settings: 1.3 mg/kg i.p. daily, 14 days
Description: Wild-type C57BL/6J mice of 9-10 weeks old, and FXR gene deletion homozygous mice (FXR^−/−) and diabetes and obesity mouse model mice (KK-Ay) with the same background are used, fed with high-fat diet (Research Diets, D12492), with free access to water, in SPF grade animal room in experimental animal center, Xiamen University. […] Intraperitoneal injection is performed one time at 9 o'clock every morning, continued for 14 days, and the mice are measured for body weight and the food intake every two days. At the end of 14 days, the mice are provided with free access to water, and after being hungry for 6 h, the mouse body weights are measured, and the percentage of the final body weight relative to the initial body weight before the treatment of the injection trial indicates the change of mouse body weight. Then blood is sampled from the eye balls, and sera are obtained by separation. The components in serum are detected by the following kits respectively: sugar-oxidase method (Beijing Applygen); insulin (Crystal Chem. Inc., USA); total cholesterol and cholesterol in high and low density lipoprotein (Bioassay Systems, USA); triglyceride (Beijing Applygen and WAKO Chemicals Inc., Japan); free fatty acids (Bioassay Systems, USA); and aspartate aminotransferase and alanine aminotransferase (Biosino Bio-technology and Science Inc., Beijing, China). Mouse liver is taken, a part of which is fixed with paraformaldehyde, and embedded with paraffin, sectioned, and stained with hematoxylin and eosin, and a part of which is cryopreserved with liquid nitrogen for use in extracting RNA for measuring gene expression with fluorescence quantitative PCR.

[4] = molecular target: T1, human FXR (Homo sapiens, UniProt Q96RI1); experiment: Reporter gene analysis, COS-7 cells cotransfected with full-length FXR and EcRE-Luc; format: cell-based; settings: 0.5 μM, COS-7, EcRE reporter, FIG. 2
T1 construct: expressed in transfected cells; host or cells: COS-7
T1 sequence (Q96RI1 1-472 isoform Q96RI1-2): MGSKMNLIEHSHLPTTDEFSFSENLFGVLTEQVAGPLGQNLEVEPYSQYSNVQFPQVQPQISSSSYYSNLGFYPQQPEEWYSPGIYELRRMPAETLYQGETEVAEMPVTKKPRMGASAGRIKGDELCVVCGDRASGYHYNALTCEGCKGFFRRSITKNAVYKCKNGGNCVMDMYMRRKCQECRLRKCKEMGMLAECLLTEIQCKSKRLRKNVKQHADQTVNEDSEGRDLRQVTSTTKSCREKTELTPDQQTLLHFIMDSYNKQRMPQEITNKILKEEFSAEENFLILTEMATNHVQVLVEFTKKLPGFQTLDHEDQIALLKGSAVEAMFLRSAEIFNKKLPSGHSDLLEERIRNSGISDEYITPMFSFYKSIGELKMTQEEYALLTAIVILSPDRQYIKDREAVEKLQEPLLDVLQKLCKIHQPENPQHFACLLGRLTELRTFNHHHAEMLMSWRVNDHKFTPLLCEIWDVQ
Description: as §1, §2

[5] = i.p. daily 14 days, ivermectin/derivatives 1.3 mg/kg, GW4064 30 mg/kg

SMILES: CC[C@H](C)[C@H]1O[C@]2(CC[C@@H]1C)C[C@@H]1C[C@@H](C/C=C(\C)C(O[C@H]3C[C@H](OC)C(O[C@H]4C[C@H](OC)[C@@H](O)[C@H](C)O4)[C@H](C)O3)[C@@H](C)/C=C/C=C3\CO[C@@H]4[C@H](O)C(C)=CC(C(=O)O1)[C@]34O)O2 (stereo partly shown) [ivermectin]
- transcriptional activity of the other detected nuclear receptors [1]: does not produce any effect
- serum insulin level ([2]; 1.3 mg/kg i.p. daily, 14 days): significantly decreases
- serum saccharides (glucose) level ([2]; 1.3 mg/kg i.p. daily, 14 days): significantly decreases
- serum free fatty acids ([2]; i.p. daily 14 days, ivermectin 1.3 mg/kg, GW4064 30 mg/kg): significantly decrease
- serum cholesterol [2, 5]: significantly decrease
- serum triglycerides [2, 5]: significantly decrease
- activity of serum alanine aminotransferase ([3]; FIG. 11): does not affect the transaminase activity
- activity of serum aspartate aminotransferase ([3]; FIG. 11): does not affect the transaminase activity
- liver injury, liver section stained with hematoxylin and eosin ([3]; FIG. 12): produces no injury to liver cells
- cholesterol level in high density lipoprotein ([3]; high-fat diet): significantly downregulated
- cholesterol levels in low density and very low density lipoprotein ([3]; high-fat diet): downregulated
- serum cholesterol level ([3]; high-fat diet): significantly decreases
- serum glucose level ([3]; high-fat diet): significantly decreases
- serum insulin level ([3]; high-fat diet): significantly decreases
- serum triglyceride (Tg) level ([3]; high-fat diet): significantly decrease
- transcriptional activity of FXR [4]: can only specifically activate the transcriptional activity of FXR
